# Bridge positions count the residues as written; N and C are the ends. Peptide text beside a SMILES is read from it.
# Experiments:
# [1] = system: B. cinerea; type: cell-based, Botrytis cinerea; conditions: B. cinerea; for Minimal Inhibitory Concentration (MIC): resazurin assay in SFM, ~10^5 spores/mL, resazurin added after 48 h, three biological replicates
# Description: (§1) B. cinerea strain T4 was cultured in V8 medium for 3 weeks at 25°C. Fungal spores were collected by flooding the fungal growth plates with water and scraped using a sterile spreader. The spore suspension was filtered through two layers of Miracloth, followed by centrifugation at 12,000 g for 2 minutes (min) and subsequently washed twice with sterile water. Lastly, fungal spores were resuspended in Synthetic Fungal Media (SFM). The spore suspension was adjusted to the desired spore density of about 10^5 spores/mL using a hemocytometer. Fusarium virguliforme (F. virguliforme) was grown and maintained regularly in potato dextrose agar (PDA) (Difco Laboratories) medium. Two weeks old F. virguliforme plates were used to collect spores as described above for B. cinerea followed by centrifugation and washing steps. Spores were counted using a hemocytometer and adjusted to the final concentration of 10^5 spores/mL in 2X SFM media. Sclerotinia sclerotiorum obtained from the field of pennycress in Illinois was grown on PDA medium at room temperature.
# The antifungal activity of NCR13 against fungal pathogens was determined using the resazurin cell viability assay, as described previously. Briefly, 45 μL of each peptide dilution (0, 0.09, 0.1875, 0.375, 0.75, 1.5, 3, and 6 μM) was added to each well of the microtiter plate containing 45 μL (~10^5 spores/mL) of spore suspension. Three biological replicates were used for each treatment and the experiments were repeated three times. Resazurin at 0.1% (w/v) was added to each well after incubation for 48 h. Images were taken at ~24 h. The Minimum Inhibitory Concentration (MIC) for each peptide denotes the lowest concentration at which the peptide halts the growth of fungus evident through a lack of color change from blue to […]. The in vitro antifungal activity of NCR13_PFVs against S. sclerotiorum was determined using a 24-well plate assay as previously described. Mycelial plugs (1 mm in diameter) cut from the growing edge of the two day-old actively growing colony were transferred from PDA media to a series of wells containing 250 μL of SFM.
# [2] = system: Fusarium virguliforme; experiment: In vitro antifungal assay, resazurin cell viability (MIC); type: cell-based; conditions: resazurin assay in SFM, ~10^5 spores/mL
# Description: as §1
# (§2) The antifungal activity of NCR13 against fungal pathogens was determined using the resazurin cell viability assay, as described previously. […] The in vitro antifungal activity of NCR13_PFVs against S. sclerotiorum was determined using a 24-well plate assay as previously described. […]
# [3] = system: Sclerotinia sclerotiorum; experiment: In vitro antifungal assay, 24-well plate with mycelial plugs (MIC); type: cell-based; conditions: mycelial plugs in 250 μL SFM
# Description: as §1, §2
# [4] = system: B. cinerea; type: in vivo, Botrytis cinerea on tomato (Solanum lycopersicum); conditions: 3 μM peptide sprayed on pre-inoculated four-week-old tomato plants; 5 leaves per plant, 4 plants
# Description: To test the curative antifungal activity of peptides against B. cinerea, 4-week-old pepper and tomato plants were used. Plants were first sprayed with 1 mL of B. cinerea spores (about 5 × 10^4) suspended in SFM. After 8 h of B. cinerea challenge, 2 mL of NCR13_PFV1 or NCR13_PFV2 (3.0 and 1.5 μM) were sprayed per plant. Control plants were sprayed with 2 mL of water. All plants were placed in a high humid environment for 72 h. Plants were imaged at 72 h after infection in white light and high-resolution fluorescence images were taken using CropReporter (PhenoVation). The quantification of plant health was carried out using the calculated Fv/Fm (maximum quantum yield of photosystem II) images of CropReporter showing the efficiency of photosynthesis in false colors.
# For the curative assay using pepper and tomato plants, pictures of whole plants and detached leaves were taken as described above. […] Four plants were used per treatment and for each plant the disease was assessed per leaf. Besides disease severity (DS), the inhibition of disease by treatment was also evaluated. […]
# [5] = system: trypsin; conditions: 20-fold less (in mass) trypsin, room temperature, 1 h, read-out mass spectrometry
smiles,measurement,setting,value
"CC[C@H](C)[C@@H]1NC(=O)[C@@H]2CSSC[C@H](NC(=O)[C@@H]3CCCN3C(=O)[C@H](CCCCN)NC(=O)[C@@H](NC(=O)[C@H](C)N)[C@@H](C)O)C(=O)N[C@@H](CCC(N)=O)C(=O)N[C@@H](CO)C(=O)N[C@@H](CC(=O)O)C(=O)N[C@@H](CCCCN)C(=O)N[C@@H](CC(=O)O)C(=O)N[C@H]3CSSC[C@H](NC(=O)[C@H](Cc4ccccc4)NC(=O)CNC(=O)[C@H](CC(N)=O)NC1=O)C(=O)N[C@@H](CCCCN)C(=O)N[C@H](C(=O)N[C@H](C(=O)N[C@@H](CCCNC(=N)N)C(=O)O)C(C)C)CSSC[C@H](NC(=O)[C@H](C)NC(=O)[C@H](Cc1ccccc1)NC(=O)[C@H](CCCCN)NC(=O)[C@H](CCCCN)NC3=O)C(=O)N[C@@H](CCCNC(=N)N)C(=O)N[C@@H](CCCCN)C(=O)N1CCC[C@H]1C(=O)N[C@@H](CCCCN)C(=O)N[C@@H](C(C)C)C(=O)N1CCC[C@H]1C(=O)N[C@@H](CCCCN)C(=O)N2 [NCR13_PFV1] (H-ATKPCQSDKDCKKFACRKPKVPKCINGFCKCVR-OH; disulfide 5-24, 11-29, 16-31)",Minimal Inhibitory Concentration (MIC),[1],0.09 µM
same,MIC in SFM+100 mM NaCl,[1]; synthetic fungal medium plus 100 mM NaCl,> 12 µM
same,Minimal Inhibitory Concentration (MIC),[2],0.09 µM
same,Minimal Inhibitory Concentration (MIC),[3],6.0 µM
same,"inhibition of gray mold disease, tomato",[4],90%
same,digestion by trypsin,[5],could not be digested by trypsin
"CC[C@H](C)[C@@H]1NC(=O)[C@@H]2CSSC[C@H](NC(=O)[C@H](Cc3ccccc3)NC(=O)CNC(=O)[C@H](CC(N)=O)NC1=O)C(=O)N[C@@H](CCCCN)C(=O)N[C@H](C(=O)N[C@H](C(=O)N[C@@H](CCCNC(=N)N)C(=O)O)C(C)C)CSSC[C@H](NC(=O)[C@H](C)NC(=O)[C@H](Cc1ccccc1)NC(=O)[C@H](CCCCN)NC(=O)[C@H](CCCCN)NC(=O)[C@@H]1CSSC[C@H](NC(=O)[C@@H]3CCCN3C(=O)[C@H](CCCCN)NC(=O)[C@@H](NC(=O)[C@H](C)N)[C@@H](C)O)C(=O)N[C@@H](CCC(N)=O)C(=O)N[C@@H](CO)C(=O)N[C@@H](CC(=O)O)C(=O)N[C@@H](CCCCN)C(=O)N[C@@H](CC(=O)O)C(=O)N1)C(=O)N[C@@H](CCCNC(=N)N)C(=O)N[C@@H](CCCCN)C(=O)N1CCC[C@H]1C(=O)N[C@@H](CCCCN)C(=O)N[C@@H](C(C)C)C(=O)N1CCC[C@H]1C(=O)N[C@@H](CCCCN)C(=O)N2 [NCR13_PFV2] (H-ATKPCQSDKDCKKFACRKPKVPKCINGFCKCVR-OH; disulfide 5-11, 16-31, 24-29)",Minimal Inhibitory Concentration (MIC),[1],1.5 µM
same,Minimal Inhibitory Concentration (MIC),[2],1.5 µM
same,Minimal Inhibitory Concentration (MIC),[3],24 µM
same,"inhibition of gray mold disease, tomato",[4],40%

# From publication PMC11637438, “Chickpea NCR13 disulfide cross-linking variants exhibit profound differences in antifungal activity and modes of action” (PLOS Pathogens, 2024)
